Results on 6 compounds are retold here after paper PMC4157719, “Arabidopsis membrane-associated acyl-CoA-binding protein ACBP1 is involved in stem cuticle formation” (Journal of Experimental Botany, 2014).

One assay concerns the target T1, rACBP1 ((His)6-tagged recombinant AtACBP1) (Arabidopsis thaliana, UniProt Q9SM23).
T1 construct: gene ACBP1; (His)6-tagged, soluble fraction of E. coli BL21(DE3), Ni-NTA purified
T1 sequence (Q9SM23 1-338): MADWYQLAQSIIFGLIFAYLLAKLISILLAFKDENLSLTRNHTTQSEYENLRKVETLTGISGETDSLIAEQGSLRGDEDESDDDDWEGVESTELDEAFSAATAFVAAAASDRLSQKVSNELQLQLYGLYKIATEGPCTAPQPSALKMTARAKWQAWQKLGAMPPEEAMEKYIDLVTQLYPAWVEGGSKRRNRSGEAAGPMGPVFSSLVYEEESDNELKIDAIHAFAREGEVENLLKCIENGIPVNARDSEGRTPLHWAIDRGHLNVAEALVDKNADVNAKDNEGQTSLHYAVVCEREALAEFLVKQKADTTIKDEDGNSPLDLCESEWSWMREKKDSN
The assay can be described thus: isothermal titration calorimetry. The format is binding.
Conditions: not given
From the text: isothermal titration calorimetry on rACBP1 ((His)6-tagged recombinant AtACBP1)
Background: In ITC the heat of successive injections is recorded.
In general, Kd refers to a measure of binding affinity in units of concentration. Take `CCCCCCCCCCCCCCCCCCCCCCCCC(=O)SCCNC(=O)CCNC(=O)[C@H](O)C(C)(C)COP(=O)(O)OP(=O)(O)OC[C@H]1O[C@@H](n2cnc3c(N)ncnc32)[C@H](O)[C@@H]1OP(=O)(O)O` [C25:0, C25:0-CoA]: the Kd is 1.69 ± 0.11 µM.

Take `CCCCCCCCCCCCCCCCCCCCCCCC(=O)SCCNC(=O)CCNC(=O)[C@H](O)C(C)(C)COP(=O)(O)OP(=O)(O)OC[C@H]1O[C@@H](n2cnc3c(N)ncnc32)[C@H](O)[C@@H]1OP(=O)(O)O` [C24:0, C24:0-CoA]: the Kd was determined as 2.14 ± 0.13 µM.

Turning to `CCCCCCCCCCCCCCCCCCCCCCCCCC(=O)SCCNC(=O)CCNC(=O)[C@H](O)C(C)(C)COP(=O)(O)OP(=O)(O)OC[C@H]1O[C@@H](n2cnc3c(N)ncnc32)[C@H](O)[C@@H]1OP(=O)(O)O` [C26:0, C26:0-CoA], the Kd was found to be 1.94 ± 0.12 µM.

Staying with this assay, now noted: 30 °C; single binding site model.
As for C18:1-CoA, the Kd was 0.76 ± 0.15 µM.

Consider C18:2-CoA, for which the Kd came out at 0.83 ± 0.04 µM.

Turning to C18:3-CoA, the dissociation constant Kd was found to be 0.44 ± 0.01 µM.
